# What was measured:
# Type in all cases: in vivo
# [1] = test system: corn (Zea mays); test: Test A postemergence, visual plant response rating; details: for Corn plant response rating (0 to 100 scale): 500 g ai/ha, postemergence, 0 is no effect, 100 is complete control; for Corn plant response rating: Postemergence, 125 g ai/ha, 0 to 100 scale (0 no effect, 100 complete control)
# Outline: (§1)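 Compared with untreated controls, treated plants received a visual injury score on a 0–100 scale around 10 days after application. The compound, in a non-phytotoxic solvent with surfactant, was given as a preemergence soil spray or postemergence at the one- to two-leaf stage.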
# [2] = test system: foxtail, giant (giant foxtail, Setaria faberii); test: Test A postemergence, visual plant response rating; details: for Foxtail, Giant plant response rating (0 to 100 scale): 500 g ai/ha, postemergence, 0 is no effect, 100 is complete control; for Foxtail, Giant plant response rating: Postemergence, 125 g ai/ha, 0 to 100 scale (0 no effect, 100 complete control)
# Outline: as §1
# [3] = test system: pigweed (Amaranthus retroflexus); test: Test A postemergence, visual plant response rating; details: for Pigweed plant response rating (0 to 100 scale): 500 g ai/ha, postemergence, 0 is no effect, 100 is complete control; for Pigweed plant response rating: Postemergence, 125 g ai/ha, 0 to 100 scale (0 no effect, 100 complete control)
# Outline: as §1
# [4] = test system: barnyardgrass (Echinochloa crus-galli); test: Test A postemergence, visual plant response rating; details: for Barnyardgrass plant response rating (0 to 100 scale): 500 g ai/ha, postemergence, 0 is no effect, 100 is complete control; for Barnyardgrass plant response rating: Postemergence, 125 g ai/ha, 0 to 100 scale (0 no effect, 100 complete control)
# Outline: as §1
# [5] = test system: blackgrass (Alopecurus myosuroides); test: Test A postemergence, visual plant response rating; details: for Blackgrass plant response rating (0 to 100 scale): 500 g ai/ha, postemergence, 0 is no effect, 100 is complete control; for Blackgrass plant response rating: Postemergence, 125 g ai/ha, 0 to 100 scale (0 no effect, 100 complete control)
# Outline: as §1
# [6] = test system: Italian ryegrass (Lolium multiflorum); test: Test A postemergence, visual plant response rating; details: for Ryegrass, Italian plant response rating (0 to 100 scale): 500 g ai/ha, postemergence, 0 is no effect, 100 is complete control; for Ryegrass, Italian plant response rating: Postemergence, 125 g ai/ha, 0 to 100 scale (0 no effect, 100 complete control)
# Outline: as §1
# [7] = test system: kochia (Kochia scoparia); test: Test A postemergence, visual plant response rating; details: for Kochia plant response rating (0 to 100 scale): 500 g ai/ha, postemergence, 0 is no effect, 100 is complete control; for Kochia plant response rating: Postemergence, 125 g ai/ha, 0 to 100 scale (0 no effect, 100 complete control)
# Outline: as §1
# [8] = test system: wheat (Triticum aestivum); test: Test A postemergence, visual plant response rating; details: for Wheat plant response rating (0 to 100 scale): 500 g ai/ha, postemergence, 0 is no effect, 100 is complete control; for Wheat plant response rating: Postemergence, 125 g ai/ha, 0 to 100 scale (0 no effect, 100 complete control)
# Outline: as §1
# [9] = test system: ragweed (common ragweed, Ambrosia elatior); test: Test A postemergence, visual plant response rating; details: for Ragweed plant response rating (0 to 100 scale): 500 g ai/ha, postemergence, 0 is no effect, 100 is complete control; for Ragweed plant response rating: Postemergence, 125 g ai/ha, 0 to 100 scale (0 no effect, 100 complete control)
# Outline: as §1
# [10] = test system: galium (catchweed bedstraw, Galium aparine); test: Test A postemergence, visual plant response rating; details: for Galium plant response rating (0 to 100 scale): 500 g ai/ha, postemergence, 0 is no effect, 100 is complete control; for Galium plant response rating: Postemergence, 125 g ai/ha, 0 to 100 scale (0 no effect, 100 complete control)
# Outline: as §1
# [11] = test system: barnyardgrass (Echinochloa crus-galli); test: Test B flooded paddy test, visual plant response rating; details: 250 g ai/ha, Flood, applied to paddy water, 2-leaf stage, evaluated after 13 to 15 days
# Outline: (§2)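 Test pots are flooded 3 cm above the soil at treatment, and the test substance is introduced into this standing water. After keeping the flood level and growing plants, treated at the 2-leaf stage, for 13 to 15 days under glass, injury is assessed visually versus controls.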
# [12] = test system: rice (Oryza sativa); test: as above; details: 250 g ai/ha, Flood, applied to paddy water, 2-leaf stage, evaluated after 13 to 15 days
# Outline: as §2
# [13] = test system: sedge, umbrella (small-flower umbrella sedge, Cyperus difformis); test: as above; details: 250 g ai/ha, Flood, applied to paddy water, 2-leaf stage, evaluated after 13 to 15 days
# Outline: as §2
# [14] = test system: ducksalad (Heteranhera limosa); test: as above; details: 250 g ai/ha, Flood, applied to paddy water, 2-leaf stage, evaluated after 13 to 15 days
# Outline: as §2
# [15] = test system: foxtail, giant (giant foxtail, Setaria faberii); test: Test A preemergence, visual plant response rating; details: for Foxtail, Giant plant response rating: 125 g ai/ha, preemergence, 0 to 100 scale, 0 no effect, 100 complete control; for Foxtail, Giant plant response rating (0 to 100 scale): 500 g ai/ha Preemergence, approx. 10 days
# Outline: as §1
# [16] = test system: pigweed (Amaranthus retroflexus); test: Test A preemergence, visual plant response rating; details: for Pigweed plant response rating: 125 g ai/ha, preemergence, 0 to 100 scale, 0 no effect, 100 complete control; for Pigweed plant response rating (0 to 100 scale): 500 g ai/ha Preemergence, approx. 10 days
# Outline: as §1
# [17] = test system: barnyardgrass (Echinochloa crus-galli); test: Test A preemergence, visual plant response rating; details: for Barnyardgrass plant response rating: 125 g ai/ha, preemergence, 0 to 100 scale, 0 no effect, 100 complete control; for Barnyardgrass plant response rating (0 to 100 scale): 500 g ai/ha Preemergence, approx. 10 days
# Outline: as §1
# [18] = test system: Italian ryegrass (Lolium multiflorum); test: Test A preemergence, visual plant response rating; details: for Ryegrass, Italian plant response rating: 125 g ai/ha, preemergence, 0 to 100 scale, 0 no effect, 100 complete control; for Ryegrass, Italian plant response rating (0 to 100 scale): 500 g ai/ha Preemergence, approx. 10 days
# Outline: as §1
# [19] = test system: kochia (Kochia scoparia); test: Test A preemergence, visual plant response rating; details: for Kochia plant response rating: 125 g ai/ha, preemergence, 0 to 100 scale, 0 no effect, 100 complete control; for Kochia plant response rating (0 to 100 scale): 500 g ai/ha Preemergence, approx. 10 days
# Outline: as §1
# [20] = test system: ragweed (common ragweed, Ambrosia elatior); test: Test A preemergence, visual plant response rating; details: for Ragweed plant response rating: 125 g ai/ha, preemergence, 0 to 100 scale, 0 no effect, 100 complete control; for Ragweed plant response rating (0 to 100 scale): 500 g ai/ha Preemergence, approx. 10 days
# Outline: as §1
Compound,Corn plant response rating (0 to 100 scale) [1],Corn plant response rating [1],"Foxtail, Giant plant response rating (0 to 100 scale) [2]","Foxtail, Giant plant response rating [2]",Pigweed plant response rating (0 to 100 scale) [3],Pigweed plant response rating [3],Barnyardgrass plant response rating (0 to 100 scale) [4],Barnyardgrass plant response rating [4],Blackgrass plant response rating (0 to 100 scale) [5],Blackgrass plant response rating [5],"Ryegrass, Italian plant response rating (0 to 100 scale) [6]","Ryegrass, Italian plant response rating [6]",Kochia plant response rating (0 to 100 scale) [7],Kochia plant response rating [7],Wheat plant response rating (0 to 100 scale) [8],Wheat plant response rating [8],Ragweed plant response rating (0 to 100 scale) [9],Ragweed plant response rating [9],Galium plant response rating (0 to 100 scale) [10],Galium plant response rating [10],other results
C#CCON=C(c1c(O)c(C)nn(C)c1=O)c1cccc2ccccc12 (mixture of isomers) [Compound 118],70,30,90,80,100,100,90,90,100,90,100,90,100,70,90,40,90,90,100,90,"Plant response rating, Barnyardgrass (0 to 100 scale, 0 is no effect, 100 is complete control) [11]: 0; Plant response rating, Rice (0 to 100 scale, 0 is no effect, 100 is complete control) [12]: 0; Plant response rating, Sedge, Umbrella (0 to 100 scale, 0 is no effect, 100 is complete control) [13]: 35; Plant response rating, Ducksalad (0 to 100 scale, 0 is no effect, 100 is complete control) [14]: 55; Foxtail, Giant plant response rating [15]: 80; Foxtail, Giant plant response rating (0 to 100 scale) [15]: 100; Pigweed plant response rating [16]: 100; Pigweed plant response rating (0 to 100 scale) [16]: 100; Barnyardgrass plant response rating [17]: 60; Barnyardgrass plant response rating (0 to 100 scale) [17]: 100; Ryegrass, Italian plant response rating [18]: 100; Ryegrass, Italian plant response rating (0 to 100 scale) [18]: 100; Kochia plant response rating [19]: 40; Kochia plant response rating (0 to 100 scale) [19]: 60; Ragweed plant response rating [20]: 80; Ragweed plant response rating (0 to 100 scale) [20]: 100"
CON=C(c1cc(Cl)ccc1C)c1c(O)c(C)nn(C)c1=O [Compound 65],0,0,70,30,90,90,40,30,30,10,90,50,80,70,20,0,80,60,90,70,"Plant response rating, Barnyardgrass (0 to 100 scale, 0 is no effect, 100 is complete control) [11]: 0; Plant response rating, Rice (0 to 100 scale, 0 is no effect, 100 is complete control) [12]: 0; Plant response rating, Sedge, Umbrella (0 to 100 scale, 0 is no effect, 100 is complete control) [13]: 0; Plant response rating, Ducksalad (0 to 100 scale, 0 is no effect, 100 is complete control) [14]: 0; Foxtail, Giant plant response rating [15]: 20; Foxtail, Giant plant response rating (0 to 100 scale) [15]: 40; Pigweed plant response rating [16]: 50; Pigweed plant response rating (0 to 100 scale) [16]: 100; Barnyardgrass plant response rating [17]: 20; Barnyardgrass plant response rating (0 to 100 scale) [17]: 50; Ryegrass, Italian plant response rating [18]: 0; Ryegrass, Italian plant response rating (0 to 100 scale) [18]: 30; Kochia plant response rating [19]: 0; Kochia plant response rating (0 to 100 scale) [19]: 30; Ragweed plant response rating [20]: 20; Ragweed plant response rating (0 to 100 scale) [20]: 100"

# From patent US20210045385A1, “PYRIDAZINONE-SUBSTITUTED KETOXIMES AS HERBICIDES” (FMC Corporation, priority 2018, published 2021)
